In ChEMBL document CHEMBL5370535, “Thiazolyl hydrazineylidenyl indolones as unique potential multitargeting broad-spectrum antimicrobial agents” (Eur J Med Chem, 2023):
Converted amounts (≈) assume the structure as drawn. The source made the active and inactive calls. The rule behind the calls is not given here.

Assays:
Candida albicans [1] = test: Antifungal activity against Candida albicans assessed as inhibition of fungal growth incubated for 24 hrs by CLSI based two serial dilution assay; type: functional
Enterococcus faecalis = test: Antibacterial activity against Enterococcus faecalis assessed as bacterial growth inhibition incubated for 24 hrs by CLSI based two serial dilution assay; type: functional
Calf thymus DNA [2] = test: Competitive binding affinity to calf thymus DNA assessed as compound-DNA complex formation upto 2 10^-5mol/L in presence of neutral red by UV/vis spectrophotometric analysis; type: nucleic-acid assay; conditions: Bos taurus
Acinetobacter baumannii = test: Antibacterial activity against Acinetobacter baumannii assessed as bacterial growth inhibition incubated for 24 hrs by CLSI based two serial dilution assay; type: functional
Calf thymus DNA [3] = test: Binding affinity to calf thymus DNA by UV/vis spectrophotometric analysis; type: nucleic-acid assay; conditions: Bos taurus; dose 4.0 10^-5mol/L
Staphylococcus aureus [4] = test: Antibiofilm activity against methicillin-resistant Staphylococcus aureus assessed as inhibition of biofilm formation at 4 microg/ml incubated for 24 hrs by crystal violet staining based assay; type: functional; design: scale not given: the % may be the effect or the level left; conditions: dose 4 µg/ml
Staphylococcus aureus [5] = test: Antibacterial activity against methicillin-resistant Staphylococcus aureus assessed as bacterial growth inhibition incubated for 24 hrs by CLSI based two serial dilution assay; type: functional
Staphylococcus aureus [6] = test: Bactericidal activity against methicillin-resistant Staphylococcus aureus assessed as increase in apoptotic cells at 4 times MIC by fluorescence microscopic analysis; type: functional, organism-based; conditions: time <= 250.0 min
Aspergillus fumigatus = test: Antifungal activity against Aspergillus fumigatus assessed as inhibition of fungal growth incubated for 24 hrs by CLSI based two serial dilution assay; type: functional
Staphylococcus aureus [7] = test: Antibiofilm activity against methicillin-resistant Staphylococcus aureus assessed as decrease in metabolic activity at 1 to 16 microg/ml measured for 6 hrs by alamar blue staining based assay; type: functional, organism-based; conditions: dose 1-16 µg/ml
Staphylococcus aureus [8] = test: Bactericidal activity against methicillin-resistant Staphylococcus aureus assessed as increase in apoptotic cells by measuring red fluorescence intensity at 4 times MIC measured upto 250 min by fluorescence microscopic analysis; type: functional, organism-based
Pseudomonas aeruginosa [9] = test: Antibacterial activity against Pseudomonas aeruginosa assessed as bacterial growth inhibition incubated for 24 hrs by CLSI based two serial dilution assay; type: functional
Staphylococcus aureus [10] = test: Antibacterial activity against Staphylococcus aureus 25923 assessed as bacterial growth inhibition incubated for 24 hrs by CLSI based two serial dilution assay; type: functional
[11] = Hemolytic activity in human RBC assessed as hemolysis at 64 microg/ml incubated for 2 hrs by double-dilution analysis; type: toxicity, cell-based, Erythrocyte; conditions: red blood cells (erythrocytes), at 64 µg/mL, read-out: Activity
Staphylococcus aureus [12] = test: Induction of morphological changes in methicillin-resistant Staphylococcus aureus assessed as membrane deformations at 4 times MIC incubated for 4 hrs by scanning electron microscopic analysis; type: functional, organism-based
Cell membrane [13] = test: Induction of cell membrane disruption in methicillin-resistant Staphylococcus aureus assessed as increase in protein leakage at 16 microg/ml incubated for 8 hrs; type: subcellular; conditions: dose 16.0 µg/ml
Cell membrane [14] = test: Induction of membrane depolarization in methicillin-resistant Staphylococcus aureus assessed as increase in fluorescence intensity at 4 times MIC measured at 5 min by DiSC35 dye-based fluorescence assay; type: subcellular
Calf thymus DNA [15] = test: Binding affinity to calf thymus DNA assessed as compound-DNA complex formation at 4 10^-5mol/L by UV/vis spectrophotometric analysis; type: nucleic-acid assay; conditions: Bos taurus
Klebsiella pneumoniae = test: Antibacterial activity against Klebsiella pneumoniae assessed as bacterial growth inhibition incubated for 24 hrs by CLSI based two serial dilution assay; type: functional
Staphylococcus aureus [16] = test: Antibacterial activity against Staphylococcus aureus assessed as bacterial growth inhibition incubated for 24 hrs by CLSI based two serial dilution assay; type: functional
Escherichia coli [17] = test: Antibacterial activity against Escherichia coli assessed as bacterial growth inhibition incubated for 24 hrs by CLSI based two serial dilution assay; type: functional
Candida albicans [18] = test: Antifungal activity against Candida albicans ATCC 90023 assessed as inhibition of fungal growth incubated for 24 hrs by CLSI based two serial dilution assay; type: functional
[19] = Cytotoxicity against human BEAS-2B cells assessed as survival rate at 0.5 to 64 microg/ml incubated for 24 hrs by MTT assay; type: toxicity, cell-based; conditions: at 0.5 to 64 µg/mL, dose 0.5-64 µg/ml, read-out: Activity
Staphylococcus aureus [20] = test: Induction of morphological changes in methicillin-resistant Staphylococcus aureus assessed as cracking of cells at 4 times MIC incubated for 4 hrs by scanning electron microscopic analysis; type: functional, organism-based
Pseudomonas aeruginosa [21] = test: Antibacterial activity against Pseudomonas aeruginosa ATCC 27853 assessed as bacterial growth inhibition incubated for 24 hrs by CLSI based two serial dilution assay; type: functional
Staphylococcus aureus [22] = test: Antibacterial activity against Staphylococcus aureus 29213 assessed as bacterial growth inhibition incubated for 24 hrs by CLSI based two serial dilution assay; type: functional
Escherichia coli [23] = test: Antibacterial activity against Escherichia coli 25922 assessed as bacterial growth inhibition incubated for 24 hrs by CLSI based two serial dilution assay; type: functional
Candida parapsilosis = test: Antifungal activity against Candida parapsilosis ATCC 22019 assessed as inhibition of fungal growth incubated for 24 hrs by CLSI based two serial dilution assay; type: functional; conditions: Lodderomyces parapsilosis
Cell membrane [24] = test: Induction of cell membrane permeability in Staphylococcus aureus assessed as increase in fluorescence intensity measured upto 135 mins by propidium iodide staining based fluorescence assay; type: subcellular
Cell membrane [25] = test: Induction of membrane depolarization in methicillin-resistant Staphylococcus aureus assessed as increase in fluorescence intensity at 1 times MIC by DiSC35 dye-based fluorescence assay; type: subcellular; conditions: time 1.0 hrs, TDE = time-dependent effect
Candida tropicalis = test: Antifungal activity against Candida tropicalis assessed as inhibition of fungal growth incubated for 24 hrs by CLSI based two serial dilution assay; type: functional
Staphylococcus aureus [26] = test: Bactericidal activity against methicillin-resistant Staphylococcus aureus assessed as reduction in viable bacteria at 4 times MIC measured at 30 mins by fluorescence microscopic analysis; type: functional, organism-based
Staphylococcus aureus [27] = test: Antibiofilm activity against methicillin-resistant Staphylococcus aureus assessed as biofilm eradication incubated for 24 hrs by crystal violet staining based assay; type: functional, organism-based; conditions: dose 1-16 µg/ml
Staphylococcus aureus [28] = test: Induction of resistance development in methicillin-resistant Staphylococcus aureus assessed as fold increase in MIC measured after consecutive passages for 24 hrs by serial passaging assay; type: functional

| SMILES | MIC (Candida albicans [1]) [µM] | MIC (Enterococcus faecalis) [µM] | MIC (Acinetobacter baumannii) [µM] | MIC (Staphylococcus aureus [5]) [µM] | MIC (Aspergillus fumigatus) [µM] | MIC (Pseudomonas aeruginosa [9]) [µM] | MIC (Staphylococcus aureus [10]) [µM] | MIC (Klebsiella pneumoniae) [µM] | MIC (Staphylococcus aureus [16]) [µM] | MIC (Escherichia coli [17]) [µM] | MIC (Candida albicans [18]) [µM] | MIC (Pseudomonas aeruginosa [21]) [µM] | MIC (Staphylococcus aureus [22]) [µM] | MIC (Escherichia coli [23]) [µM] | MIC (Candida parapsilosis) [µM] | MIC (Candida tropicalis) [µM] | other results |
| --- | --- | --- | --- | --- | --- | --- | --- | --- | --- | --- | --- | --- | --- | --- | --- | --- | --- |
| CCCCN1C(=O)/C(=N\Nc2nccs2)c2ccccc21 | 0.5 (≈ 0.15 µg/mL) | 0.5 (≈ 0.15 µg/mL) | 1 (≈ 0.3 µg/mL) | 0.25 (≈ 0.0751 µg/mL) | 1 (≈ 0.3 µg/mL) | 0.5 (≈ 0.15 µg/mL) | 0.25 (≈ 0.0751 µg/mL) | 0.25 (≈ 0.0751 µg/mL) | 0.5 (≈ 0.15 µg/mL) | 0.5 (≈ 0.15 µg/mL) | 0.5 (≈ 0.15 µg/mL) | 0.5 (≈ 0.15 µg/mL) | 0.25 (≈ 0.0751 µg/mL) | 0.25 (≈ 0.0751 µg/mL) | 0.5 (≈ 0.15 µg/mL) | 0.5 (≈ 0.15 µg/mL) | Activity (Calf thymus DNA [2]): Active; Activity (Calf thymus DNA [3]): Dose-Dependent Effect; Activity (Staphylococcus aureus [4]): 30%; Activity (Staphylococcus aureus [6]): Active; Activity (Staphylococcus aureus [7]): Active; Activity (Staphylococcus aureus [8]): inactive; hemolysis at 2 h, 64 µg/mL [11]: < 5%; Activity (Staphylococcus aureus [12]): Active; Activity (Cell membrane [13]): Active; Activity (Cell membrane [14]): Active; Activity (Calf thymus DNA [15]): Active; viability at 24 h [19]: > 75%; Activity (Staphylococcus aureus [20]): Active; Activity (Cell membrane [24]): Active; Activity (Cell membrane [25]): Tde; Activity (Staphylococcus aureus [26]): Active; Activity (Staphylococcus aureus [27]): Dose-Dependent Effect |
| CCn1cc(C(=O)O)c(=O)c2cc(F)c(N3CCNCC3)cc21 [NORFLOXACIN] |  | 4 (≈ 1.28 µg/mL) | 8 (≈ 2.55 µg/mL) | 4 (≈ 1.28 µg/mL) |  | 2 (≈ 0.639 µg/mL) | 1 (≈ 0.319 µg/mL) | 4 (≈ 1.28 µg/mL) | 1 (≈ 0.319 µg/mL) | 16 (≈ 5.11 µg/mL) |  | 0.5 (≈ 0.16 µg/mL) | 2 (≈ 0.639 µg/mL) | 8 (≈ 2.55 µg/mL) |  |  | fold change (FC) (Staphylococcus aureus [28]): 4 |
| O=C1/C(=N\Nc2nccs2)c2ccccc2N1Cc1cccc(Cl)c1 | 256 (≈ 94.4 µg/mL) | 32 (≈ 11.8 µg/mL) | 256 (≈ 94.4 µg/mL) | 16 (≈ 5.9 µg/mL) | 16 (≈ 5.9 µg/mL) | 256 (≈ 94.4 µg/mL) | 8 (≈ 2.95 µg/mL) | 256 (≈ 94.4 µg/mL) | 32 (≈ 11.8 µg/mL) | 128 (≈ 47.2 µg/mL) | 128 (≈ 47.2 µg/mL) | 512 (≈ 189 µg/mL) | 16 (≈ 5.9 µg/mL) | 256 (≈ 94.4 µg/mL) | 128 (≈ 47.2 µg/mL) | 64 (≈ 23.6 µg/mL) |  |
